Earlier results in article PMC8359378 (British Journal of Clinical Pharmacology, 2021).

Experiments:
[1] = intravenous infusion; cited from earlier work
factor XIa activity = conditions: cited from earlier work
FXI and FXIa = conditions: subcutaneous administration; cited from earlier work

In the case of `CN1CCN(c2cccc3c2CCN(C(=O)/C=C/c2c(-n4cnnn4)ccc(Cl)c2F)[C@@H]3C(=O)Nc2ccc(C(=O)O)cc2)C(=O)C1` [BMS‐962212], the “patients in the active treated groups reporting AEs” value [1] is listed as 17.6% and the “patients reporting infusion site pain or irritation” value [1] is listed as 5.9%.

B1: Osocimab: fully human IgG1 monoclonal antibody targeting coagulation factor XIa (antibody, chains of the INN, looked up, V domains shown)
VH: EVQLLESGGGLVQPGGSLRLSCAASGFTFSQYGMDWVRQAPGKGLEWVSGIGPSGGSTVYADSVKGRFTISRDNSKNTLYLQMNSLRAEDTAVYYCTRGGPYYYYGMDVWGQGTTVTVSS
VL: DIQMTQSPSSLSASVGDRVTITCQASQDISNYLNWYQQKPGKAPKLLIYDASNLETGVPSRFSGSGSGTDFTFTISSLQPEDIATYYCQQADSFPVTFGGGTKVEIK
In the case of B1, the “effect on apparent factor XIa activity and aPTT” value (factor XIa activity) is given as “reduced apparent factor XIa activity and prolonged aPTT in a dose‐dependent manner”.

B2: MAA868: fully human antibody which binds both FXI and FXIa (antibody, chains of the INN, looked up, V domains shown)
VH: QVQLLESGGGLVQPGGSLRLSCAASGFTFSTAAMSWVRQAPGKGLEWVSGISGSGSSTYYADSVKGRFTISRDNSKNTLYLQMNSLRAEDTAVYYCARELSYLYSGYYFDYWGQGTLVTVSS
VL: QSVLTQPPSASGTPGQRVTISCSGSSSNIGSNDVSWYQQLPGTAPKLLIYKNYNRPSGVPDRFSGSKSGTSASLAISGLQSEDEADYYCSAWDQRQFDVVFGGGTKLTVL
For B2, the “effect on aPTT and FXI” value (FXI and FXIa) is listed as “robust and sustained prolongation of aPTT and FXI suppression”.
